The values that follow come from patent US5705499A, “8-arylalkyl- and 8-arylheteroalkyl-5,11-dihydro-6H-dipyrido[3,2-B:2',3'-e][1]diazepines and their use in the treatment of HIV-1 infection” (Boehringer Ingelheim Pharmaceuticals, Inc., priority 1996, dated 1998).

The series has as its system C8166-45 cell line. Description: MTT Assay (cytotoxicity). It counts as cell-based, human. The conditions noted are these: C8166-45 cells, five days.

Regarding `CCN1c2ncc(COc3ccccc3C(=O)OC)cc2C(=O)N(C)c2ccc(Cl)nc21` [Example 110, 2-chloro-5,11-dihydro-11-ethyl-8-(2-(methyoxycarbonyl)phenyloxy)methyl-5-methyl-6H-dipyrido[3,2-b:2',3'-e][1,4]diazepin-6-one], the “MTT Assay CC30” value was more than 250 µM.
Next, `CCN1c2ncc(CCO)cc2C(=O)N(C)c2ccc(Cl)nc21` [Example 85, 2-chloro-5,11-dihydro-11-ethyl-8-(β-hydroxy)ethyl-5-methyl-6H-dipyrido[3,2-b:2',3'-e][1,4]diazepin-6-one]: more than 256 µM.
Next, `CCN1c2ncc(CCc3cc[n+]([O-])cc3)cc2C(=O)N(C)c2ccc(Cl)nc21` [Example 8, 2-Chloro-5,11-dihydro-11-ethyl-8-[2-(4-(N-oxopyridyl))ethyl]-5-methyl-6H-dipyrido[3,2-b:2',3'-e][1,4]diazepin-6-one]: more than 256 µM.
Turning to `CCN1c2ncc(CC(O)c3ccncc3)cc2C(=O)N(C)c2ccc(Cl)nc21` (stereo not shown) [Example 9, 2-Chloro-5,11-dihydro-11-ethyl-8-[2-hydroxy-2-(pyrid-4yl)ethyl-]5methyl-6H-dipyridol[3,2-b:2',3'-e][1,4]diazepin-6-one], the “MTT Assay CC30” value was 150 µM.
Turning to `CCN1c2ncc(COc3cccc4[nH]ccc34)cc2C(=O)N(C)c2ccc(Cl)nc21` [Example 114, 2-chloro-5,11-dihydro-11-ethyl-8-(4-indolyloxy)methyl-5-methyl-6H-dipyrido[3,2-b:2',3'-e][1,4]diazepin-6-one], the “MTT Assay CC30” value amounted to 30 µM.
`CCN1c2ncc(CC(=O)c3ccncc3)cc2C(=O)N(C)c2ccc(Cl)nc21` [Example 12, 2-Chloro-5,11-dihydro-11-ethyl-8-[2-oxo-2-(4-pyridyl)ethyl]-5-methyl-6H-dipyrido[3,2-b:2',3'-e][1,4]diazepin-6-one]: the “MTT Assay CC30” value turned out to be 250 µM.
Next, `CCN1c2ncc(COc3ccnc(C(F)(F)F)c3)cc2C(=O)N(C)c2ccc(Cl)nc21` [Example 126, 2-chloro-5,11-dihydro-11-ethyl-5-methyl-8-(2-trifluoromethylpyrid-4-yloxy)methyl-6H-dipyrido[3,2-b;2',3'-e][1,4]diazepin-6-one]: 64 µM; `CCN1c2ncc(CNc3ccccc3)cc2C(=O)N(C)c2ccc(Cl)nc21` [Example 87, 2-chloro-5,11-dihydro-11-ethyl-5-methyl-8-(phenylamino)methyl-6H-dipyrido[3,2-b:2',3'-e][1,4]diazepin-6-one]: more than 60 µM.
Regarding `CCN1c2ncc(CCc3ccncc3)cc2C(=O)N(C)c2ccc(F)nc21` [Example 38, 5,11-Dihydro-11-ethyl-2-fluoro-5-methyl-8-[2-(pyrid-4-yl)ethyl]-6H-dipyrido[3,2-b:2',3'-e][1,4]diazepin-6-one], the “MTT Assay CC30” value lay within 150 to 175 µM.
Turning to `CCN1c2ncc(CSc3[nH]cnc4nncc3-4)cc2C(=O)N(C)c2ccc(Cl)nc21` [Example 122, 2-chloro-5,11-dihydro-11-ethyl-5-methyl-8-(1H-pyrazolo[3,4-d]pyrimidine-4-ylthio)methyl-6H-dipyrido[3,2-b:2',3'-e][1,4]diazepin-6-one], the “MTT Assay CC30” value was 25 µM.
Next, `CCN1c2ncc(COc3cccc([N+](=O)[O-])c3)cc2C(=O)N(C)c2ccc(Cl)nc21` [Example 98]: more than 60 µM; `CCN1c2ncc(CCc3ccccc3)cc2C(=O)Nc2c(C)ccnc21` [Example 76, 5,11-Dihydro-11-ethyl-4-methyl-8-(2-phenylethyl)-6H-dipyrido[3,2-b:2',3'-e][1,4]diazepin-6-one]: more than 130 µM.
Next, `CCN1c2ncc(COc3ccccc3O)cc2C(=O)N(C)c2ccc(Cl)nc21` [Example 106, 2-chloro-5,11-dihydro-11-ethyl-8-(2-hydroxyphenyloxy)methyl-5-methyl-6H-dipyrido[3,2-b:2',3'-e][1,4]diazepin-6-one]: more than 60 µM; `CCN1c2ncc(CCc3cccc(N)c3)cc2C(=O)N(C)c2ccc(Cl)nc21` [Example 22, 8-[2-(3-Aminophenyl)ethyl]-2-chloro-5,11-dihydro-11-ethyl-5-methyl-6H-dipyrido[3,2-b:2',3'-e][1,4]diazepin-6-one]: 60 µM; `CCN1c2ncc(COc3ccncc3)cc2C(=O)N(C)c2ccc(F)nc21` [Example 125, 5,11-dihydro-11-ethyl-2-fluoro-5-methyl-8-(pyrid-4-yloxy)methyl-6H-dipyrido[3,2-b:2',3'-e][1,4]diazepin-6-one]: 160 µM.
Next, `CCN1c2ncc(CSc3ncccn3)cc2C(=O)N(C)c2ccc(Cl)nc21` [Example 121, 2-chloro-5,11-dihydro-11-ethyl-5-methyl-8-(pyrimidinyl-2-thio)methyl-6H-dipyrido[3,2-b:2',3'-e][1,4]diazepin-6-one]: 50 µM; `CCN1c2ncc(CCc3ccnc(C(N)=O)c3)cc2C(=O)N(C)c2ccc(Cl)nc21` [Example 69, 2-Chloro-5,11-dihydro-11-ethyl-5-methyl-8-[2-(2-carboxamidopyrid-4-yl)ethyl]-6H-dipyrido[3,2-b:2',3'-e][1,4]diazepin-6-one]: more than 128 µM.
With `CCN1c2ncc(CCc3ccccc3)cc2C(=O)Nc2c1nc(Cl)c(Br)c2C` [Example 75, 3-Bromo-2-chloro-5,11-dihydro-11-ethyl-4-methyl-8-(2-phenylethyl)-6H-dipyrido[3,2-b:2',3'-e][1,4]diazepin-6-one], the “MTT Assay CC30” value was more than 130 µM.
As to `CCN1c2ncc(COc3cccc(OC)c3)cc2C(=O)N(C)c2ccc(Cl)nc21` [Example 108, 2-chloro-5,11-dihydro-11-ethyl-8-(3-methoxyphenyloxy)methyl-5-methyl-6H-dipyrido[3,2-b:2',3'-e][1,4]diazepin-6-one], the “MTT Assay CC30” value was more than 120 µM.
Next, `CCN1c2ncc(COc3cccc(C(=O)OC)c3)cc2C(=O)N(C)c2ccc(Cl)nc21` [Example 111]: more than 60 µM.
As for `CCN1c2ncc(CCc3ccc4ccccc4c3)cc2C(=O)N(C)c2ccc(F)nc21` [Example 41, 5,11-Dihydro-11-ethyl-2-fluoro-5-methyl-8-[2-(2-naphthyl)ethyl]-6H-dipyrido[3,2-b:2',3'-e][1,4]diazepin-6-one], the “MTT Assay CC30” value stood at 20 µM.
In the case of `CCN1c2ncc(COc3cc[n+]([O-])c(C(F)(F)F)c3)cc2C(=O)N(C)c2ccc(Cl)nc21` [Example 95, 2-chloro-5,11-dihydro-11-ethyl-5-methyl-8-(N-oxo-2-trifluoromethylpyrid-4-yloxy)methyl-6H-dipyrido[3,2-b:2',3'-e][1,4]diazepin-6-one], the “MTT Assay CC30” value worked out at 100 µM.
Next, `CCN1c2ncc(CC(O)c3cc[n+]([O-])cc3)cc2C(=O)N(C)c2ccc(Cl)nc21` (stereo not shown) [Example 13, 2-Chloro-5,11-dihydro-11-ethyl-8-[2-hydroxy-2-(N-oxo-pyrid-4-yl)ethyl]-5-methyl-6H-dipyrido[3,2-b:2',3'-e][1,4]diazepin-6-one]: more than 128 µM.
Next, `CCN1c2ncc(CS(=O)(=O)c3ccccc3)cc2C(=O)N(C)c2ccc(Cl)nc21` [Example 118, 2-chloro-5,11-dihydro-11-ethyl-5-methyl-8-(phenylsulfonyl)methyl-6H-dipyrido[3,2-b:2',3'e][1,4]diazepin-6-one]: 45 µM; `CCN1c2ncc(CCc3ccccc3C)cc2C(=O)N(C)c2cccnc21` [Example 62, 5,11-Dihydro-11-ethyl-5-methyl-8-[2-(2-tolyl)ethyl]-6H-dipyrido[3,2-b:2',3'-e][1,4]diazepin-6-one]: more than 130 µM.
With `CCN1c2ncc(COc3ccc(C(=O)OC)cc3)cc2C(=O)N(C)c2ccc(Cl)nc21` [Example 109, 2-chloro-5,11-dihydro-11-ethyl-8-(4-(methoxycarbonyl)phenyloxy)methyl-5-methyl-6H-dipyrido[3,2-b :2',3'-e][1,4]diazepin-6-one], the “MTT Assay CC30” value is more than 60 µM.
Next, `CCN1c2ncc(CCc3ccnc(C)c3)cc2C(=O)N(C)c2cccnc21` [Example 65, 5,11-Dihydro-11-ethyl-5-methyl-8-[2-(2-methylpyrid-4-yl)ethyl]-6H-dipyrido[3,2-b:2',3'-e][1,4]diazepin-6-one]: 230 µM.
As to `CCN1c2ncc(CNc3cccc(N)c3)cc2C(=O)N(C)c2ccc(Cl)nc21` [Example 88, 8-(3-aminophenylamino)methyl-2-chloro-5,11-dihydro-11-ethyl-5-methyl-6H-dipyrido[3,2-b:2',3'-e][1,4]diazepin-6-one], the “MTT Assay CC30” value worked out at 60 µM.
Next, `CCN1c2ncc(CCc3ccnc(C)c3)cc2C(=O)N(C)c2ccc(Cl)nc21` [Example 66, 2-Chloro-5,11-dihydro-11-ethyl-5-methyl-8-[2-(2-methylpyrid-4-yl)ethyl]-6H-dipyrido[3,2-b:2',3'-e][1.4]diazepin-6-one]: 100 µM; `CCN1c2ncc(CCc3ccccc3N)cc2C(=O)N(C)c2cccnc21` [Example 64, 8-[2-(2-Aminophenyl)ethyl]-5,11-dihydro-11-ethyl-5-methyl-6H-dipyrido[3.2-b:2',3'-e][1,4]diazepin-6-one]: more than 200 µM.
Consider `CCN1c2ncc(COc3cccc(F)c3)cc2C(=O)N(C)c2ccc(Cl)nc21` [Example 101], for which the “MTT Assay CC30” value was more than 60 µM.
As for `CCN1c2ncc(CC(F)c3ccncc3)cc2C(=O)N(C)c2ccc(Cl)nc21` (stereo not shown) [Example 11, 2-Chloro-5,11-dihydro-11-ethyl-8-[2-fluoro-2-(4-pyridyl)ethyl]-5-methyl-6H-dipyrido-[3,2-b:2',3'-e][1,4]diazepin-6-one], the “MTT Assay CC30” value was 150 µM.
Consider `CCN1c2ncc(C=O)cc2C(=O)N(C)c2ccc(Cl)nc21` [Example 80, 2-chloro-5,11-dihydro-11-ethyl-8-formyl-5-methyl-6H-dipyrido[3,2-b:2',3'-e][1,4]diazepin-6-one], for which the “MTT Assay CC30” value amounted to 65 µM.
Next, `CCN1c2ncc(COc3cc[n+]([O-])cc3)cc2C(=O)N(C)c2cccnc21` [Example 97, 5,11-dihydro-11-ethyl-5-methyl-8-((1-oxo-pyridin-4-yl)oxy)methyl-6H-dipyrido[3,2-b:2',3'-e][1,4]diazepin-6-one]: more than 130 µM.
